# In patent US11717557B2, “Use of PRG4 as an anti-inflammatory agent” (Lubris LLC, priority 2015, dated 2023):
# pKd: −log10 of the molar value.
# Key:
# [1] = target: T1, CD44 IgG1Fc (Homo sapiens, UniProt P16070); assay: Surface plasmon resonance binding of rhPRG4 to CD44 and competition with HMW HA
# T1 construct: purchased R & D systems
# Description: Binding of rhPRG4 to CD44-IgG1Fc was investigated using surface plasmon resonance (Biacore T100, GE Healthcare Lifesciences, NJ, USA). Series S chips were functionalized using the human antibody capture kit (GE Life Sciences) and either CD44-IgG1Fc or IgG1FC was allowed to bind to the surface of the functionalized chips in flow cell 1 (Fc1) and flow cell 2 (Fc2), respectively. rhPRG4 was injected at 30 μL/min for 8 min at concentrations of 300, 250, 200, 150, 100 and 50 μg/mL followed by a 10 min dissociation using 0.1M HEPES, 1.5M NaCl, 30 mM EDTA, and 0.5% P20 (GE Life Sciences). The surface of the chip was regenerated at the end of each cycle with 1 min pulse of 3M MgCl2. Each analyte concentration was injected in duplicate. The resulting curves were double referenced (i.e. Fc2-Fc1, followed by subtraction of the 0 μg/mL curve). The binding kinetics and binding affinity were determined by BiaEvaluation software, using 1:1 binding/conformational change model or by steady-state equilibrium, respectively. To study the competition between rhPRG4 and HMW HA in binding to CD44, rhPRG4 was injected at concentrations ranging between 0 and 300 μg/mL as described above. Following the end of dissociation phase, HMW HA was injected at 50 μg/mL (30 μL per min) for 1 min. […]
# [2] = system: Prg4−/− synoviocytes; assay: Cytokine-induced Prg4−/− synoviocyte proliferation; assay type: cell-based, mice; conditions: p<0.001
# Description: rhPRG4 binding to CD44 and competition with high molecular weight hyaluronic acid (HMW HA) was evaluated using a direct enzyme linked immunosorbent assay (ELISA) and surface plasmon resonance. Sialidase-A and O-glycosidase digestion of rhPRG4 was performed and CD44 binding was evaluated using ELISA. Rheumatoid arthritis fibroblast-like synoviocytes (RA-FLS) were stimulated with interleukin-1 beta (IL-1β) or tumor necrosis factor alpha (TNF-α) for 48 hours in the presence or absence of rhPRG4 or HMW HA at 20, 40 and 80 μg/mL and cell proliferation was measured. CD44 contribution was assessed by co-incubation with an anti-CD44 antibody (IM7). The anti-proliferative effect of rhPRG4 was investigated following treatment of Prg4−/− synoviocytes with IL-1β or TNF-α in the presence or absence of IM7.
# Synovial tissue was harvested from Prg4−/− and Prg4+/+ male mice (8-10 weeks old; 5-8 animals per genotype) and digested with pronase enzyme (2 mg/mL; Sigma Aldrich) in sterile HBSS buffer for 30 min at 37° C. with shaking. This was followed by digestion with type I collagenase (1 mg/mL; Sigma Aldrich) for 4 hours at 37° C. with shaking. The enzymatic reaction was stopped using DMEM+10% FBS. Cells were grown in DMEM+10% FBS and Prg4−/− synoviocytes were used between 2nd and 4th passages while Prg4+/+ synoviocytes were used in their second passage.
# [3] = system: sodium urate crystal induced joint pain; assay: Urate crystal gout model, Von Frey paw withdrawal; assay type: in vivo; conditions: rhPRG4 injection after urate crystals; two rats per group
# Description: Male Lewis rats (10 weeks old; n=4) were injected with MSU suspension (50 μL; 5 mg/mL; Invivogen, California) in their knee joints. At 1 hour following MSU injection, rat knee joints were treated with 50 μL phosphate buffered saline (PBS; n=2) or rhPRG4 (50 μL; 2 mg/mL) (n=2). Paw withdrawal pressures were measured using an electronic Von Frey instrument, and data is present as percent change from baseline values.
# Rats undergoing injection of sodium urate crystals were studied as a model of gout. 24 hours following the sodium urate crystal administration, rats developed joint pain. Two rats received saline while another two rats received rhPRG4 injection 24 hours after the urate crystals were introduced. These rats were studied every 12 hours utilizing the Von Frey method. This method determines afferent pain sensitization as a result of joint inflammation by probing the paws of the affected limb with a thin filament wire.
substance,measurement,setting,value
"rhPRG4: full-length recombinant human PRG4 (lubricin) glycoprotein produced by CHO-M cells (Lubris), Mr≅240 KDa",pKd,"[1]; immobilized CD44-IgG1Fc, based on a rhPRG4 molecular weight of 240 KDa, read-out: apparent Kd",~7.42
same,effect on binding of HMW HA to recombinant CD44,"[1]; rhPRG4 0-300 μg/mL, then HMW HA 50 μg/mL, inverse relationship of binding signals",interfered with binding of HMW HA
same,IL-1β induced proliferation of Prg4−/− synoviocytes,[2],significantly inhibited
same,TNF-α induced proliferation of Prg4−/− synoviocytes,[2],significantly inhibited
same,pain (Von Frey method) versus rats which received placebo,[3],less pain
